Consider one compound from PMC11881906, “Development of xanthone derivatives as effective broad-spectrum antimicrobials: Disrupting cell wall and inhibiting DNA synthesis” (Science Advances, 2025).

Each structure is given as a SMILES string. In brackets after ≈: the same amount, converted by molar mass.

Test [1] relates to tested strains (Gram-positive and Gram-negative bacteria). Nature of the test: MIC, summary over the tested strains. Type of test: cell-based. On the procedure:
MIC was determined using the broth microdilution method in accordance with Clinical and Laboratory Standards Institute guidelines. All compounds were dissolved in dimethyl sulfoxide (DMSO; final DMSO concentration of less than 0.5%) and sterile double-distilled water and then diluted with Mueller-Hinton broth (MHB). Each compound’s stock solution was serially twofold diluted, resulting in concentrations ranging from 0.39 to 100 μg/ml, and thereafter added to sterile 96-well plates. All bacterial cell suspensions were adjusted in MHB to attain a starting inoculum of 1 × 10^6 cells/ml. A total of 100 μl volume of the bacterial suspension was then added to each well. Following a 24-hour incubation at 37°C, the optical density at 600 nm (OD600) was confirmed by measuring absorbance at 600 nm with a BioTek microplate reader. […] All measurements were repeated three times with duplicates each time.

The subject of a further test is P. aeruginosa ATCC 9027. Nature of the test: Time-kill kinetic assay. The conditions noted are these: 5× MIC. The test is classed as cell-based, Pseudomonas aeruginosa. On the procedure: The bacterial cultures were standardized to obtain an initial density that ranged from 10^5 to 10^6 cells/ml. The cultures were incubated in a shaking bath at 37°C. Viable counts were determined at 0-, 0.5-, 1.0-, 2.0-, 4.0-, 8.0-, and 24-hour intervals by spotting 10-μl aliquots of serially 10-fold diluted cultures onto Mueller-Hinton agar (MHA) plates. After incubation at 37°C for 24 hours, the bactericidal activity, defined as the ability to reduce the initial inoculum by 3 log10 CFU/ml, was examined for each tested concentration over time. All measurements were repeated three times with duplicates each time.

In the next test the test system is S. aureus ATCC 29213. The test is described as follows: Serial passage resistance induction. Type of test: cell-based, Staphylococcus aureus. The conditions noted are these: 20-day passages at 0.5× MIC. On the procedure: The bacteria were grown in a medium containing 0.5× MIC of each compound to prepare the bacterial suspension for the next MIC determination. The MICs were then recorded after incubation at 37°C for 24 hours. Daily passages were continued until the initial MIC increased by more than fourfold. The stability of acquired resistance was investigated by MIC determination and repeated for 20 days.

In the next test the test system is E. coli ATCC 25922. Nature of the test: DiSC3(5) membrane depolarization assay. Type of test: cell-based, Escherichia coli. The conditions noted are these: 1× to 8× MIC. On the procedure: The DiSC3(5) assay was carried out to investigate the cytoplasmic membrane depolarization. Mid-log phase bacteria culture was centrifuged and resuspended in sterile Hepes buffer [5 mM (pH 7.4)] to adjust the concentration of bacterial cells to obtain OD600 of 0.1. The bacterial suspension was then incubated with 2 μM DiSC3(5) for 1 hour without being exposed to the light. The change in fluorescence intensity was monitored by a BioTek multidetector microplate reader with an excitation wavelength of 622 nm and an emission wavelength of 670 nm. […] All measurements were repeated three times with duplicates each time.

Test [2] has as its target T1, topoisomerase IV from E. coli (Escherichia coli, UniProt P0AFI2+P20083).
T1 construct: purchased ProFoldin (Worcester, MA)
Nature of the test: Topoisomerase IV decatenation inhibition assay. Type of test: biochemical. To be noted: 1× MIC. On the procedure:
E. coli topoisomerase enzymes (II and IV) were supplied by ProFoldin (Worcester, MA), and assays were performed according to the manufacturer’s instructions. Briefly, the DNA supercoiling assay was conducted in a volume of 40 μl containing 24 μl of H2O, 4 μl of 10× buffer, 4 μl of 10× relaxed DNA, 4 μl of 10× enzyme, and 4 μl of 10 mM adenosine triphosphate (ATP). Following a 60-min incubation at room temperature, 200 μl of H2O was added to each reaction mixture. Topoisomerase IV decatenation inhibition assay was conducted in a volume of 50 μl containing 38.5 μl of H2O, 5 μl of 10× buffer, 5 μl of 10× concatenated DNA, 0.5 μl of 100× enzyme, and 1 μl of 10 mM ATP. After 60 min of incubation at 37°C, 5 μl of 0.4 M EDTA was added to stop the reaction. […]
In the supercoiling inhibition assay, the fluorescence intensity was measured using freshly prepared 1× H19 dye, which was prepared by diluting 100× H19 dye with 10 mM tris-HCl and 10 mM NaCl (pH 7.0). […] In the decatenation inhibition assay, the change in fluorescence intensity was monitored using the 1× fluorescence dye after diluting the 20× dye with water. The reaction solution eluted from the column was mixed with 150 μl of 1× fluorescence dye. The fluorescence intensity for both assays was lastly detected at 535 nm using an excitation wavelength of 485 nm. […]

T1 sequence (P20083 whole entry): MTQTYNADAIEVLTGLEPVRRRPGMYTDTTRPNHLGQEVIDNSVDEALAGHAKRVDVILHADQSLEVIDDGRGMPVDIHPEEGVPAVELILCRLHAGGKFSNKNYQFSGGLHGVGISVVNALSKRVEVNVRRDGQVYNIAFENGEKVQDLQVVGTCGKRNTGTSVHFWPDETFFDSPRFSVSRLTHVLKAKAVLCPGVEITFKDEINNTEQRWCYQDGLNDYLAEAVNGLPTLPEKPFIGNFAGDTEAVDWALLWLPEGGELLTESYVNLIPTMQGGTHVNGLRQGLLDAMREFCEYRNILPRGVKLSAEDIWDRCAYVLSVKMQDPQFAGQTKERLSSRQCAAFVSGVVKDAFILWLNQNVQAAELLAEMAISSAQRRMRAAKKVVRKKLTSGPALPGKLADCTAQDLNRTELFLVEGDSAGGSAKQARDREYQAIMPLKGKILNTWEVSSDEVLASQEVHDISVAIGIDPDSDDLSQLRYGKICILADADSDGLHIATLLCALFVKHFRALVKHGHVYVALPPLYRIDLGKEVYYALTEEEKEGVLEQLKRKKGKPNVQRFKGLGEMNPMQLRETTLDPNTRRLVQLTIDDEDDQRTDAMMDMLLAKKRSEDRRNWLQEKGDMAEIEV
T1 sequence (P0AFI2 whole entry): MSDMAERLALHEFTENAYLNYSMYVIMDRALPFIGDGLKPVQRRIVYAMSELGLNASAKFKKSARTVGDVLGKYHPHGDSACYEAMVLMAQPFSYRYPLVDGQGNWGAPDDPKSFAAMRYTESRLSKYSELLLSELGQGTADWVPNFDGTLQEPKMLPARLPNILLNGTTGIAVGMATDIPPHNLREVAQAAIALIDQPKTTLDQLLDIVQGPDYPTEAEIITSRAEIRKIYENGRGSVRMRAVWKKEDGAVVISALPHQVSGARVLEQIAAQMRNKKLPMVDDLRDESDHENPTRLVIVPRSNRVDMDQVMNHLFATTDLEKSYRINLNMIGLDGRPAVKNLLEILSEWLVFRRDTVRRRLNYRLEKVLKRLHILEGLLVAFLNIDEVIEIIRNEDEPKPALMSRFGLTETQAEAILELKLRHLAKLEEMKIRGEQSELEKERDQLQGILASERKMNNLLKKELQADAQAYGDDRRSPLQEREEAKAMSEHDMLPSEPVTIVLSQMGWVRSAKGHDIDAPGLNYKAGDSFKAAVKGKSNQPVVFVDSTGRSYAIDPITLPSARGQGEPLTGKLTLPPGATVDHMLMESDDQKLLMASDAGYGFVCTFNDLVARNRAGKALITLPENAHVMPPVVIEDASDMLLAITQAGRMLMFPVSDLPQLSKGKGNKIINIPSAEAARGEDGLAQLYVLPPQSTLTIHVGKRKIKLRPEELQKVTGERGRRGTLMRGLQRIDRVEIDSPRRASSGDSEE

`CC(C)=CCOc1cc(OCCCNC(=N)N)cc2oc3cc(OCCCNC(=N)N)ccc3c(=O)c12` [XT17]: the “fold increase in antibacterial activity” value in test [1] (guanidine XT17 versus primary amine XT07) is on record as 8- to 32 fold. Moreover, the MIC in test [1] (read-out: MICs against the tested strains) is 0.39 to 3.12 µg/mL (≈ 0.764 to 6.12 µM). The “log bacterial load reduction” value with P. aeruginosa ATCC 9027 (1 hour) is given as 3.24 log. Moreover, the bacterial regrowth result in the test on P. aeruginosa ATCC 9027 (at 24 hours) was “no bacterial regrowth was observed”. Moreover, the “increase in MIC values during passages” value in the test on S. aureus ATCC 29213 is “no more than fourfold increase”. In addition, the “DiSC3(5) fluorescence intensity (membrane depolarization)” value with E. coli ATCC 25922 is given as “no changes in fluorescence intensity”. For the same compound, the “Inhibition of topoisomerase IV (%)” value in test [2] is given as 36.93%.
